{
  "source": "patent US9642925B2",
  "about": "“Magnetic nanoparticle formulations, methods for making such formulations, and methods for their use” (Sanford Research/USD, priority 2010, dated 2017)",
  "key": {"[1]": {"test_system": "A2780CP ovarian cancer cells", "assay": "In vitro cytotoxicity (MTT assay), A2780CP", "type": "cell-based", "settings": "A2780C/P, 48 h, 2 days, read-out: IC50 (50% cell growth inhibitory concentration)", "method": "(§1) In vitro cytotoxicity was assessed using a standard 3-(4,5-dimethylthiazol-2-yl)-2,5-diphenyltetrazolium bromide (MTT) based colorimetric assay (CellTiter 96 AQeous, Promega, Madison, Wis., USA). Ovarian (A2780CP), breast (MDA-MB-231), and prostate (PC3) cancer cells were used for this experiment. Cells (5000 cells/well in 100 μl media) were cultured in RPMI-1640 or DMEM medium containing 10% FBS and 1% penicillin-streptomycin in 96-well plates and allowed to attach overnight. The media was replaced with fresh media containing different concentrations (2.5-40 μM) of CUR and CUR containing MNPs (F127250-CUR). Equivalent amounts of DMSO or F127250 MNPs without drug in PBS were used as control. These plates were incubated at 37° C. for 2 days. After day 2, the media was replaced with 100 μl fresh media and the MTT reagent (25 μl/well) was added to each well and plates were incubated for 3 hrs at 37° C. in an incubator. The color intensity was measured at 492 nm using a microplate reader (BioMate 3 UV-Vis Spectrophotometer, Thermo Electron Corporation, Hudson, N.H., USA). The anti-proliferation potential of CUR and F127250-CUR treatments was calculated as a percentage of cell growth with respect to the DMSO and F127250 formulation in PBS controls. Standard deviations were obtained from 6 replicates."}, "[2]": {"test_system": "MDA-MB-231 breast cancer cells", "assay": "In vitro cytotoxicity (MTT assay), MDA-MB-231", "type": "cell-based", "settings": "Homo sapiens, 48 h; MDA-MB-231, 2 days; read-out: IC50 (50% cell growth inhibitory concentration)", "method": "as §1"}, "[3]": {"test_system": "PC3 prostate cancer cells", "assay": "In vitro cytotoxicity (MTT assay), PC3", "type": "cell-based", "settings": "48 h; PC3, 2 days; read-out: IC50 (50% cell growth inhibitory concentration)", "method": "as §1"}, "PARP": {"test_system": "PARP", "assay": "Western blot for PARP cleavage in PC3 cells", "type": "cell-based", "settings": "20 μM", "method": "The immunoblot analyses were performed to determine anti-cancer effects of our formulation at the molecular level. For these experiments, cancer cells were collected after 2 days of treatment with 10 μM and 20 μM CUR and 10 μM and 20 μM of F127250-CUR and processed for protein extraction and Western blotting using standard procedures. The cell lysates were separated by gel electrophoresis on polyacrylamide gels containing sodium dodecyl sulfate and then transferred to PVDF membranes. The membranes were blocked with Tris-buffered saline (TBS) containing 5% (w/v) skimmed milk. After washing thrice with Tween 20, the membranes were incubated overnight with primary antibody specific to Bcl-xL or PARP at 4° C. After washing, the membranes were incubated for 1 hr with secondary antibody (Promega, Madison Wis., USA). Protein bands were visualized using the Lumi-Light Detection Kit (Roche, Nutley, N.J., USA) and detected with a BioRad Gel Doc (BioRad, Hercules, Calif., USA)."}, "PC3 cancer cells": {"test_system": "PC3 cancer cells", "assay": "Ultrastructural changes in cancer cells by TEM", "type": "cell-based", "settings": "20 μM", "method": "The uptake (internalization) pattern of nanoparticles was monitored by transmission electron microscopy (TEM) to further validate the cellular uptake capability of magnetic nanoparticles in cancer cells which was visually observed. For this experiment, aforementioned cells (1×10^7 cells per 150 mm plate) were incubated with 1 mg of particles in 20 ml media for 6 hrs. The treated cells were centrifuged and fixed with standard formaldehyde (4%)-glutaraldehyde (1%) fixative solution followed by OsO4 fixative solution. Next, cells were dehydrated in a graded series of acetone and embedded in Spurr resin. These cell-containing resin blocks were sectioned using an ultramicrotome and ultrathin sections (70-90 nm thickness) were transferred onto TEM grid (grid size: 97 μm) (Ted Pella Inc., Redding, Calif., USA). The grids were processed with uranyl acetate and lead acetate solutions to visualize cellular ultra structures.\nThe variation of ultrastructural changes in the cancer cells upon exposure to control (DMSO and F127250 formulation), 20 μM CUR or 20 μM F127250-CUR were observed by transmission electron microscopy (TEM) analysis."}, "Bcl-xL": {"test_system": "Bcl-xL", "assay": "IHC of Bcl-xL expression in pancreatic tumor xenografts", "type": "in vivo, athymic nude mice", "settings": "intra-tumoral at day 20", "method": "(§2) FIG. 15. The effect of MNP-curcumin formulation on the expression of Bcl-xL and MCL-1 oncogenes in pancreatic tumor xenografts. Pancreatic tumor xenografts were generated in athymic nude mice by subcutaneous (sc) injection of HPAFII human pancreatic cancer cells. […] The presence of MNPs (iron) in tumors was determined by Prussian Blue staining. Original Magnifications 200×.\n(§3) We then tested to effect of MNP-curcumin formulation on the expression of Bcl-xL and MCL-1 oncogenes in pancreatic tumor xenografts. Pancreatic tumor xenografts were generated in athymic nude mice by subcutaneous (sc) injection of HPAFII human pancreatic cancer cells."}, "MCL-1": {"test_system": "MCL-1", "assay": "IHC of MCL-1 expression in pancreatic tumor xenografts", "type": "in vivo, athymic nude mice", "settings": "intra-tumoral at day 20", "method": "as §2, §3"}},
  "data": [
    {"smiles": "COc1cc(/C=C/C(=O)CC(=O)/C=C/c2ccc(O)c(OC)c2)ccc1O", "note": "[curcumin, (E,E)-1,7-bis(4-Hydroxy-3-methoxyphenyl)-1,6-heptadiene-3,5-dione]", "values": [
      {"measurement": "IC50", "setting": "[1]", "value": 12.6, "unit": "µM"},
      {"measurement": "IC50", "setting": "[2]", "value": 18.8, "unit": "µM"},
      {"measurement": "IC50", "setting": "[3]", "value": 10.6, "unit": "µM"},
      {"measurement": "PARP cleavage", "setting": "PARP", "value": "considerable cleavage"},
      {"measurement": "ultrastructural changes (vacuole formation)", "setting": "PC3 cancer cells", "value": "formation of endosomal-lysosomal-vacules"},
      {"measurement": "expression of Bcl-xL oncogene in tumor xenografts", "setting": "Bcl-xL", "value": "effectively inhibited the expression"},
      {"measurement": "expression of MCL-1 oncogene in tumor xenografts", "setting": "MCL-1", "value": "effectively inhibited the expression"}
    ]}
  ]
}
